In US9730445B2, “Herbicidal compositions comprising 4-amino-3-chloro-5-fluoro-6-(4-chloro-2-fluoro-3-methoxyphenyl) pyridine-2-carboxylic acid or a derivative thereof and fungicides” (DOW AGROSCIENCES LLC, priority 2013, dated 2017):
“And” between values parts separate entries of the source, which are not always exact repeats. Equal values may be shown once.

Tests used:
Experiment in all cases: Postemergence foliar-applied weed control, direct-seeded rice (greenhouse)
DIGSA = format: in vivo, Digitaria sanguinalis (L.) Scop. (large crabgrass)
ECHCO = format: in vivo, Echinochloa colonum (L.) LINK (junglerice)
Text: (§1) Seeds or nutlets of the desired test plant species were planted in a soil matrix prepared by mixing aloam or sandy loam soil (e.g., 28.6 percent silt, 18.8 percent clay, and 52.6 percent sand, with a pH of about 5.8 and an organic matter content of about 1.8 percent) and calcareous grit in an 80 to 20 ratio. The soil matrix was contained in plastic pots with a volume of 1 quart and a surface area of 83.6 square centimeters (cm^2). When required to ensure good germination and healthy plants, a fungicide treatment and/or other chemical or physical treatment was applied. The plants were grown for 8-22 days in a greenhouse with an approximate 14 hour (h) photoperiod which was maintained at about 29° C. during the day and 26° C. during the night. Nutrients (Peters Excel® 15-5-15 5-Ca 2-Mg and iron chelate) were applied in the irrigation solution as needed and water was added on a regular basis. Supplemental lighting was provided with overhead metal halide 1000-Watt lamps as necessary. The plants were employed for testing when they reached the first through fourth true leaf stage.
(§2) Treatments consisted of the acid or esters of 4-amino-3-chloro-5-fluoro-6-(4-chloro-2-fluoro-3-methoxy-phenyl)pyridine-2-carboxylic acid (Compound A), each formulated as an SC (suspension concentrate), and various fungicidal components alone and in combination. Forms of compound A were applied on an acid equivalent basis.
(§3) Treatment requirements were calculated based upon the rates being tested, the concentration of active ingredient or acid equivalent in the formulation and a 12 milliliter (mL) application volume at a rate of 187 liters per hectare (L/ha).
(§4) For treatments comprised of formulated compounds, measured amounts of compounds were placed individually in 25 mL glass vials and diluted in a volume of 1.25% volume per volume (v/v) Agri-Dex® crop oil concentrate to obtain 12× stock solutions. […] Application solutions were prepared by adding an appropriate amount of each stock solution (e.g., 1 mL) and diluted to the appropriate final concentrations with the addition of […] of an aqueous mixture of 1.25% (v/v) crop oil concentrate so that the final spray solutions contained 1.25+/−0.05% (v/v) crop oil concentrate.
(§5) For treatments comprised of technical compounds, weighed amounts can be placed individually in 25 mL glass vials and dissolved in a volume of 97:3 volume per volume (v/v) acetone/dimethyl sulfoxide (DMSO) to obtain 12× stock solutions. […] When technical materials are used, the concentrated stock solutions can be added to the spray solutions so that the final acetone and DMSO concentrations of the application solutions are 16.2% and 0.5%, respectively.
(§6) As required, additional water and/or 97:3 v/v acetone/DMSO was added to individual application solutions so that the final acetone and DMSO concentrations of the application solutions being compared were 8.1% and 0.25%, respectively
(§7) All stock solutions and applications solutions were visually inspected for compound compatibility prior to application. Spray solutions were applied to the plant material with an overhead Mandel track sprayer equipped with 8002E nozzles calibrated to deliver 187 L/ha over an application area of 0.503 square meters (m^2) at a spray height of 18 to 20 inches (46 to 50 cm) above average plant canopy height. Control plants were sprayed in the same manner with the solvent blank.
(§8) The treated plants and control plants were placed in a greenhouse as described above and watered by sub-irrigation to prevent wash-off of the test compounds. After approximately 3 weeks, the condition of the test plants as compared with that of the untreated plants was determined visually and scored on a scale of 0 to 100 percent where 0 corresponds to no injury or growth inhibition and 100 corresponds to complete kill. […]

CYPES = format: in vivo, Cyperus esculentus L. (yellow nutsedge)
Procedure: as §1, with “When required to ensure good germination and healthy plants, a fungicide treatment and/or other chemical or physical treatment was applied.” left out
as §2, §4, §5, §6, §7, §8

ECHOR = format: in vivo, Echinochloa oryzoides (Ard.) Fritsch (early watergrass); details: r78-80 ester 8/16/32 g ae/ha alone, r81-83 difenoconazole 50/100/200 g ai/ha alone, r84-92 ester 8/16/32 at each of 50, 100, 200
Procedure: as §1, with “When required to ensure good germination and healthy plants, a fungicide treatment and/or other chemical or physical treatment was applied.” left out
as §2
For treatments comprised of formulated compounds, measured amounts of compounds were placed individually in 25 mL glass vials and diluted in a volume of 1.25% volume per volume (v/v) Agri-Dex® crop oil concentrate to obtain 12× stock solutions. […]
as §8

BRAPP = format: in vivo
Text: as §1, §2, §3, §4, §5, §6, §7, §8

[1] = r38-39 ester 8/16 g ae/ha alone, r40 isotianil 380 g ai/ha alone, r41-42 ester 8/16 + 380

## COc1c(Cl)ccc(-c2nc(C(=O)OCc3ccccc3)c(Cl)c(N)c2F)c1F [Compound A Benzyl Ester]
DIGSA; 20 DAA, r21-23 ester 8/16/32 g ae/ha alone, r24-25 isotianil 100/200 g ai/ha alone, r26-31 ester 8/16/32 at each of 100, 200
  Visual Weed Control (%)—20 DAA DIGSA Obs: 20% and 30% and 40%
DIGSA; 21 DAA, r38-39 ester 8/16 g ae/ha alone, r40 isotianil 380 g ai/ha alone, r41-42 ester 8/16 + 380
  Visual Weed Control (%)—21 DAA DIGSA Obs: 15% and 25%
DIGSA; 22 DAA, r22-24 ester 8/16/32 g ae/ha alone, r25-27 difenoconazole 50/100/200 g ai/ha alone, r28-36 ester 8/16/32 at each of 50, 100, 200
  Visual Weed Control (%) - 22 DAA DIGSA Obs: 15% and 23% and 28%
ECHCO; r9-11 ester 8/16/32 g ae/ha alone, r12-13 carbendazim 125/250 g ai/ha alone, r14-19 ester 8/16/32 at each of 125, 250
  Visual Weed Control (%) - 19 DAA ECHCO Obs: 90% and 95% and 65%
ECHCO; r9-11 ester 8/16/32 g ae/ha alone, r12-13 flutolanil 280/560 g ai/ha alone, r14-19 ester 8/16/32 at each of 280, 560
  Visual Weed Control (%) - 19 DAA ECHCO Obs: 90% and 95% and 65%
ECHCO; r9-11 ester 8/16/32 g ae/ha alone, r12-14 hexaconazole 25/50/100 g ai/ha alone, r15-23 ester 8/16/32 at each of 25, 50, 100
  Visual Weed Control (%)—21 DAA ECHCO Obs: 65% and 85% and 50%
ECHCO; [1]
  Visual Weed Control (%)—21 DAA ECHCO Obs: 50% and 65%
CYPES; r26 ester 8 g ae/ha alone, r27-29 phthalide 100/200/300 g ai/ha alone, r30-32 ester 8 + 100/200/300
  Visual Weed Control (%) - 21 DAA CYPES Obs: 10%
CYPES; r45 ester 8 g ae/ha alone, r46-48 kasugamycin 17.5/35/70 g ai/ha alone, r49-51 ester 8 + 17.5/35/70
  Visual Weed Control (%)—21 DAA CYPES Obs: 70%
ECHOR
  Visual Weed Control (%) - 21 DAA ECHOR Obs: 45% and 43% and 70%
BRAPP; 20 DAA, r9-11 ester 8/16/32 g ae/ha alone, r12 isotianil 200 g ai/ha alone, r13-15 ester 8/16/32 + 200
  Visual Weed Control (%)—20 DAA BRAPP Obs: 85% and 90% and 60%
BRAPP; r29-30 ester 8/16 g ae/ha alone, r31-33 hexaconazole 25/50/100 g ai/ha alone, r34-39 ester 8/16 at each of 25, 50, 100
  Visual Weed Control (%)—21 DAA BRAPP Obs: 55% and 60%
BRAPP; [1]
  Visual Weed Control (%)—21 DAA BRAPP Obs: 55% and 60%
